# Source: ChEMBL document CHEMBL5537135, “Novel antimicrobial peptides modified with fluorinated sulfono-γ-AA having high stability and targeting multidrug-resistant bacteria infections” (Eur J Med Chem, 2024)
# The source made the active and inactive calls. The rule behind the calls is not given here. Numbered stars: 1 amine (or outer) side, 2 acyl side, 3 side chain; on linkers, the order of the positions; unused ones are H or OH. Square brackets hold non-standard residues; d marks the D form. Peptide text beside a SMILES is read from it. * marks the point of attachment. X3 = CC(C)C[C@@H](CN(CC(N)=O)S(=O)(=O)c1ccc(C(F)(F)F)cc1)N*; X2 = CC(C)C[C@H](N)CN(CC(=O)[*:2])[*:1]; X1 = O=S(=O)(c1ccc(C(F)(F)F)cc1)*
# Tests used:
# [1] = system: Pseudomonas aeruginosa; assay: Antibiofilm activity against Pseudomonas aeruginosa ATCC 27853 assessed as biofilm thickness at 2 times MIC90 incubated for 24 hrs by confocal laser scanning microscopic analysis; type: functional
# [2] = system: Salmonella typhimurium; assay: Antimicrobial activity against Salmonella typhimurium ATCC 14028 assessed as inhibition of visible bacterial growth incubated for 18 hrs by broth-dilution method; type: functional, Salmonella enterica subsp. enterica serovar Typhimurium; details: Salmonella enterica
# [3] = system: Staphylococcus aureus; assay: Antimicrobial activity against Staphylococcus aureus ATCC 25923 assessed as fold increase in MIC in presence of human serum; type: functional
# [4] = system: Cell membrane; assay: Disruption of membrane integrity in Staphylococcus aureus ATCC 33591 incubated for 30 mins by PI staining based CLSM analysis; type: cell membranes
# [5] = system: Pseudomonas aeruginosa; assay: Antimicrobial activity against Pseudomonas aeruginosa ATCC 27853 assessed as reduction in microbial growth in presence of human serum; type: functional
# [6] = system: Pseudomonas aeruginosa; assay: Bactericidal activity against Pseudomonas aeruginosa ATCC 27853 at 1 to 4 times MIC by time-kill assay; type: functional, organism-based
# [7] = system: Staphylococcus aureus; assay: Antimicrobial activity against Staphylococcus aureus ATCC 25923 assessed as fold change in MIC in presence of salt solution; type: functional
# [8] = system: Staphylococcus aureus; assay: Antibiofilm activity against methicillin-resistant Staphylococcus aureus ATCC 33591 assessed as biofilm thickness at 1 times MIC90 incubated for 24 hrs by confocal laser scanning microscopic analysis; type: functional
# [9] = system: Staphylococcus epidermidis; assay: Antibiofilm activity against Staphylococcus epidermidis ATCC 12228 assessed as inhibition of biofilm formation at 4 to 8 microg/ml incubated for 24 hrs by crystal violet staining based analysis; type: functional; details: dose 4-8 µg/ml, at 4 to 8 µg/mL
# [10] = system: Pseudomonas aeruginosa; assay: Antimicrobial activity against multidrug-resistant Pseudomonas aeruginosa 124 assessed as inhibition of visible bacterial growth incubated for 18 hrs by broth-dilution method; type: functional
# [11] = Stability in human serum assessed as half life measured for 5 hrs by RP-HPLC analysis; type: ADME, cell-free
# [12] = system: Staphylococcus aureus; assay: Antibiofilm activity against methicillin-resistant Staphylococcus aureus ATCC 33591 assessed as biofilm thickness at 8 microg/ml incubated for 24 hrs by confocal laser scanning microscopic analysis; type: functional; details: dose 8 µg/ml
# [13] = system: Staphylococcus aureus; assay: Antimicrobial activity against methicillin-resistant Staphylococcus aureus 10 assessed as inhibition of visible bacterial growth incubated for 18 hrs by broth-dilution method; type: functional
# [14] = system: Acinetobacter baumannii; assay: Antimicrobial activity against Acinetobacter baumannii ATCC 19606 assessed as inhibition of visible bacterial growth incubated for 18 hrs by broth-dilution method; type: functional
# [15] = system: Pseudomonas aeruginosa; assay: Antibiofilm activity against Pseudomonas aeruginosa ATCC 27853 assessed as inhibition of biofilm formation at 4 to 8 microg/ml incubated for 24 hrs by crystal violet staining based analysis; type: functional; details: dose 4-8 µg/ml, at 4 to 8 µg/mL
# [16] = system: Pseudomonas aeruginosa; assay: Antibacterial activity against drug-susceptible Pseudomonas aeruginosa […] assessed as reduction in microbial growth; type: functional
# [17] = system: Pseudomonas aeruginosa; assay: Antimicrobial activity against multidrug-resistant Pseudomonas aeruginosa 516 assessed as inhibition of visible bacterial growth incubated for 18 hrs by broth-dilution method; type: functional
# [18] = system: Staphylococcus aureus; assay: Antibiofilm activity against methicillin-resistant Staphylococcus aureus ATCC 33591 assessed as biofilm eradication at 4 times MIC incubated for 2 hrs by crystal violet staining based assay; type: functional, organism-based
# [19] = system: Staphylococcus aureus; assay: Antibacterial activity against drug-susceptible Staphylococcus aureus ATCC 33591 assessed as reduction in microbial growth; type: functional
# [20] = system: Pseudomonas aeruginosa; assay: Antimicrobial activity against multidrug-resistant Pseudomonas aeruginosa 157 assessed as inhibition of visible bacterial growth incubated for 18 hrs by broth-dilution method; type: functional
# [21] = system: Cell membrane; assay: Disruption of membrane integrity in Pseudomonas aeruginosa ATCC 27853 incubated for 30 mins by PI staining based CLSM analysis
# [22] = system: Staphylococcus aureus; assay: Antibiofilm activity against Staphylococcus aureus ATCC 25923 assessed as inhibition of biofilm formation at 4 to 8 microg/ml incubated for 24 hrs by crystal violet staining based analysis; type: functional; details: dose 4-8 µg/ml, at 4 to 8 µg/mL
# [23] = system: Staphylococcus aureus; assay: Antimicrobial activity against methicillin-resistant Staphylococcus aureus ATCC 33591 assessed as inhibition of visible bacterial growth incubated for 18 hrs by broth-dilution method; type: functional
# [24] = system: Staphylococcus aureus; assay: Antimicrobial activity against methicillin-resistant Staphylococcus aureus 1 assessed as inhibition of visible bacterial growth incubated for 18 hrs by broth-dilution method; type: functional
# [25] = system: Staphylococcus aureus; assay: Antimicrobial activity against methicillin-resistant Staphylococcus aureus 5 assessed as inhibition of visible bacterial growth incubated for 18 hrs by broth-dilution method; type: functional
# [26] = system: Pseudomonas aeruginosa; assay: Antimicrobial activity against multidrug-resistant Pseudomonas aeruginosa 119 assessed as inhibition of visible bacterial growth incubated for 18 hrs by broth-dilution method; type: functional
# [27] = system: Pseudomonas aeruginosa; assay: Antimicrobial activity against multidrug-resistant Pseudomonas aeruginosa 073 assessed as inhibition of visible bacterial growth incubated for 18 hrs by broth-dilution method; type: functional
# [28] = system: Staphylococcus aureus; assay: Antibiofilm activity against methicillin-resistant Staphylococcus aureus ATCC 33591 assessed as biofilm eradication at 4 times MIC incubated for 2 to 4 hrs by crystal violet staining based assay; type: functional, organism-based; details: time 2-4 hrs
# [29] = system: Pseudomonas aeruginosa; assay: Antimicrobial activity against multidrug-resistant Pseudomonas aeruginosa 050 assessed as inhibition of visible bacterial growth incubated for 18 hrs by broth-dilution method; type: functional
# [30] = system: Staphylococcus aureus; assay: Antimicrobial activity against Staphylococcus aureus ATCC 25923 assessed as inhibition of visible bacterial growth incubated for 18 hrs by broth-dilution method; type: functional
# [31] = system: Staphylococcus aureus; assay: Antibiofilm activity against methicillin-resistant Staphylococcus aureus ATCC 33591 assessed as biofilm thickness at 2 times MIC90 incubated for 24 hrs by confocal laser scanning microscopic analysis; type: functional
# [32] = system: Pseudomonas aeruginosa; assay: Bactericidal activity against Pseudomonas aeruginosa ATCC 27853 at 2 to 4 times MIC; type: functional, organism-based
# [33] = system: Pseudomonas aeruginosa; assay: Antimicrobial activity against Pseudomonas aeruginosa ATCC 27853 at 1 times MIC incubated for 18 hrs in presence of LPS/LTA; type: functional, organism-based
# [34] = system: Staphylococcus aureus; assay: Antimicrobial activity against Staphylococcus aureus ATCC 33591 at 1 times MIC incubated for 18 hrs in presence of LPS/LTA; type: functional, organism-based
# [35] = system: Pseudomonas aeruginosa; assay: Antimicrobial activity against multidrug-resistant Pseudomonas aeruginosa 085 assessed as inhibition of visible bacterial growth incubated for 18 hrs by broth-dilution method; type: functional
# [36] = system: Staphylococcus aureus; assay: Antimicrobial activity against Staphylococcus aureus ATCC 25923 assessed as reduction in bacterial growth in presence of Ca2+; type: functional
# [37] = system: Staphylococcus aureus; assay: Antimicrobial activity against methicillin-resistant Staphylococcus aureus 3 assessed as inhibition of visible bacterial growth incubated for 18 hrs by broth-dilution method; type: functional
# [38] = system: Escherichia coli; assay: Antimicrobial activity against Escherichia coli ATCC 25922 assessed as inhibition of visible bacterial growth incubated for 18 hrs by broth-dilution method; type: functional
# [39] = system: Pseudomonas aeruginosa; assay: Antibiofilm activity against Pseudomonas aeruginosa ATCC 27853 assessed as biofilm eradication at 4 times MIC incubated for 1 hr by crystal violet staining based assay; type: functional, organism-based
# [40] = system: Staphylococcus aureus; assay: Antimicrobial activity against methicillin-resistant Staphylococcus aureus 8 assessed as inhibition of visible bacterial growth incubated for 18 hrs by broth-dilution method; type: functional
# [41] = system: Staphylococcus aureus; assay: Antibiofilm activity against methicillin-resistant Staphylococcus aureus ATCC 33591 assessed as inhibition of biofilm formation at 4 to 8 microg/ml incubated for 24 hrs by crystal violet staining based analysis; type: functional; details: dose 4-8 µg/ml, at 4 to 8 µg/mL
# [42] = system: Pseudomonas aeruginosa; assay: Bactericidal activity against Pseudomonas aeruginosa ATCC 27853 assessed as reduction in viable bacteria at 4 times MIC measured for 5 min by time-kill assay; type: functional, organism-based
structure (smiles),measurement,setting,value
CC(C)C[C@@H](CN(CC(N)=O)S(=O)(=O)c1ccc(C(F)(F)F)cc1)NC(=O)[C@H](CCCCN)NC(=O)[C@H](CCCCN)NC(=O)[C@H](CC(C)C)NC(=O)[C@H](CC(C)C)NC(=O)[C@H](CCCCN)NC(=O)[C@H](CC(C)C)NC(=O)[C@@H](N)Cc1ccccc1 (H-FLKLLKK-X3),Activity,[1],20 um
same,MIC,[2],16 µg/mL
same,fold change (FC),[3],2
same,Activity,[4],Active
same,MIC,[5],8 µg/mL
same,Activity,[6],Active
same,fold change (FC),[7],0.25
same,Activity,[8],40 um
same,inhibition (INH),[9],50%
same,MIC,[10],8 µg/mL
same,half-life,[11],2.96 h
same,Activity,[12],20 um
same,MIC,[13],8 µg/mL
same,MIC,[14],16 µg/mL
same,inhibition (INH),[15],50%
same,MIC,[16],4 µg/mL
same,MIC,[17],16 µg/mL
same,Activity,[18],Active
same,MIC,[19],4 µg/mL
same,MIC,[20],8 µg/mL
same,Activity,[21],Active
same,inhibition (INH),[22],50%
same,MIC,[23],4 µg/mL
same,MIC,[24],8 µg/mL
same,MIC,[25],8 µg/mL
same,MIC,[26],8 µg/mL
same,MIC,[27],16 µg/mL
same,Activity,[28],Active
same,MIC,[29],16 µg/mL
same,MIC,[30],4 µg/mL
same,Activity,[31],20 um
same,Activity,[32],Active
same,Activity,[33],inactive
same,Activity,[34],inactive
same,MIC,[35],16 µg/mL
same,MIC,[36],32 µg/mL
same,MIC,[37],4 µg/mL
same,MIC,[38],16 µg/mL
same,Activity,[39],Active
same,MIC,[40],4 µg/mL
same,inhibition (INH),[41],50%
same,Activity,[42],Active
CC(C)C[C@H](N)CN(CC(=O)N[C@@H](CCCCN)C(=O)N[C@@H](CC(C)C)C(=O)N[C@@H](CC(C)C)C(=O)N[C@@H](CCCCN)C(=O)N[C@@H](CCCCN)C(=O)N[C@@H](CC(C)C)C(=O)N[C@@H](CC(C)C)C(N)=O)S(=O)(=O)c1ccc(C(F)(F)F)cc1 (X1-[X2]KLLKKLL-NH2),Activity,[1],20 um
same,MIC,[2],8 µg/mL
same,fold change (FC),[3],2
same,Activity,[4],Active
same,MIC,[5],8 µg/mL
same,Activity,[6],Active
same,fold change (FC),[7],0.25
same,Activity,[8],40 um
same,inhibition (INH),[9],50%
same,MIC,[10],4 µg/mL
same,half-life,[11],9.22 h
same,Activity,[12],20 um
same,MIC,[13],8 µg/mL
same,MIC,[14],16 µg/mL
same,inhibition (INH),[15],50%
same,MIC,[16],4 µg/mL
same,MIC,[17],4 µg/mL
same,Activity,[18],Active
same,MIC,[19],4 µg/mL
same,MIC,[20],4 µg/mL
same,Activity,[21],Active
same,inhibition (INH),[22],50%
same,MIC,[23],4 µg/mL
same,MIC,[24],4 µg/mL
same,MIC,[25],4 µg/mL
same,MIC,[26],8 µg/mL
same,MIC,[27],8 µg/mL
same,Activity,[28],Active
same,MIC,[29],4 µg/mL
same,MIC,[30],4 µg/mL
same,Activity,[31],20 um
same,Activity,[32],Active
same,Activity,[33],inactive
same,Activity,[34],inactive
same,MIC,[35],8 µg/mL
same,MIC,[36],32 µg/mL
same,MIC,[37],4 µg/mL
same,MIC,[38],16 µg/mL
same,Activity,[39],Active
same,MIC,[40],4 µg/mL
same,inhibition (INH),[41],50%
same,Activity,[42],Active
